Results taken from PubChem BioAssay AID2060332 (Molecular Pharmacology Branch, DTP, NCI, 2025).

System: LG0567-F671-PDC multi-cell spheroid viability
Assay: Anticancer human tumor LG0567-F671-PDC patient-derived lung adenocarcinoma cell line growth inhibition [IpAb]
Details: for IC50: curve of first compound; for viability, T/C: stronger effect = lower value
Summary of the method: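 Combinations with ipatasertib or abemaciclib were tested on tumour spheroids holding HUVEC (25%) and MSC (15%) alongside 60% malignant cells. Top concentration was at or near clinical Cmax (10 microM if undefined), descending in half-log steps.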

[1] = second compound 0.1 µM, first compound 0.00949 µM
[2] = second compound 0.1 µM, first compound 0.03 µM
[3] = second compound 0.1 µM, first compound 0.0949 µM
[4] = second compound 0.1 µM, first compound 0.3 µM
[5] = second compound 0.1 µM, first compound 0.949 µM
[6] = second compound 0.1 µM, first compound 3 µM
[7] = second compound 0.316 µM, first compound 0.00949 µM
[8] = second compound 0.316 µM, first compound 0.03 µM
[9] = second compound 0.316 µM, first compound 0.0949 µM
[10] = second compound 0.316 µM, first compound 0.3 µM
[11] = second compound 0.316 µM, first compound 0.949 µM
[12] = second compound 0.316 µM, first compound 3 µM
[13] = second compound 1 µM, first compound 0.00949 µM
[14] = second compound 1 µM, first compound 0.03 µM
[15] = second compound 1 µM, first compound 0.0949 µM
[16] = second compound 1 µM, first compound 0.3 µM
[17] = second compound 1 µM, first compound 0.949 µM
[18] = second compound 1 µM, first compound 3 µM
[19] = second compound 0.1 µM, first compound 0.00316 µM
[20] = second compound 0.1 µM, first compound 0.01 µM
[21] = second compound 0.1 µM, first compound 0.0316 µM
[22] = second compound 0.1 µM, first compound 0.1 µM
[23] = second compound 0.316 µM, first compound 0.00316 µM
[24] = second compound 0.316 µM, first compound 0.01 µM
[25] = second compound 0.316 µM, first compound 0.0316 µM
[26] = second compound 0.316 µM, first compound 0.1 µM
[27] = second compound 1 µM, first compound 0.00316 µM
[28] = second compound 1 µM, first compound 0.01 µM
[29] = second compound 1 µM, first compound 0.0316 µM
[30] = second compound 1 µM, first compound 0.1 µM
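Note: viability read after 7 days of drug exposure.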
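Throughout, for viability, T/C: 100% = DMSO vehicle control luminescence.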

Cn1cnc2c(F)c(Nc3ccc(Br)cc3Cl)c(C(=O)NOCCO)cc21 + CCN1CCN(Cc2ccc(Nc3ncc(F)c(-c4cc(F)c5nc(C)n(C(C)C)c5c4)n3)nc2)CC1
IC50 (second compound 0.01 µM): 19.1 nM
IC50 (second compound 0.0316 µM): 11.9 nM
IC50 (second compound 0.1 µM): < 9.49 nM
IC50 (second compound 0.316 µM): < 9.49 nM
IC50 (second compound 1 µM): < 9.49 nM
viability, T/C (second compound 0.01 µM, first compound 0.00949 µM): 55%
viability, T/C (second compound 0.01 µM, first compound 0.03 µM): 48%
viability, T/C (second compound 0.01 µM, first compound 0.0949 µM): 28.8%
viability, T/C (second compound 0.01 µM, first compound 0.3 µM): 22.5%
viability, T/C (second compound 0.01 µM, first compound 0.949 µM): 19.9%
viability, T/C (second compound 0.01 µM, first compound 3 µM): 13.4%
viability, T/C (second compound 0.0316 µM, first compound 0.00949 µM): 53.5%
viability, T/C (second compound 0.0316 µM, first compound 0.03 µM): 36.4%
viability, T/C (second compound 0.0316 µM, first compound 0.0949 µM): 27.9%
viability, T/C (second compound 0.0316 µM, first compound 0.3 µM): 17.3%
viability, T/C (second compound 0.0316 µM, first compound 0.949 µM): 20.2%
viability, T/C (second compound 0.0316 µM, first compound 3 µM): 13.5%
viability, T/C [1]: 47.5%
viability, T/C [2]: 38.5%
viability, T/C [3]: 28%
viability, T/C [4]: 17.4%
viability, T/C [5]: 17%
viability, T/C [6]: 10.6%
viability, T/C [7]: 48.8%
viability, T/C [8]: 29.9%
viability, T/C [9]: 33.6%
viability, T/C [10]: 24.7%
viability, T/C [11]: 17.4%
viability, T/C [12]: 11.4%
viability, T/C [13]: 45%
viability, T/C [14]: 35.2%
viability, T/C [15]: 29.6%
viability, T/C [16]: 27.5%
viability, T/C [17]: 18.6%
viability, T/C [18]: 11.3%

CC(C)n1nc(-c2ccc3oc(N)nc3c2)c2c(N)ncnc21 + CC(C)NCC(C(=O)N1CCN(c2ncnc3c2C(C)CC3O)CC1)c1ccc(Cl)cc1
IC50 (second compound 0.1 µM): 80.4 nM
IC50 (second compound 0.316 µM): > 100 nM
IC50 (second compound 1 µM): > 100 nM
IC50 (second compound 3.16 µM): 27.1 nM
IC50 (second compound 10 µM): 11.7 nM
viability, T/C (second compound 0.1 µM, first compound 0.000316 µM): 89%
viability, T/C (second compound 0.1 µM, first compound 0.001 µM): 99.4%
viability, T/C [19]: 76.8%
viability, T/C [20]: 65.8%
viability, T/C [21]: 59.1%
viability, T/C [22]: 46.4%
viability, T/C (second compound 0.316 µM, first compound 0.000316 µM): 76%
viability, T/C (second compound 0.316 µM, first compound 0.001 µM): 76%
viability, T/C [23]: 87%
viability, T/C [24]: 66.5%
viability, T/C [25]: 50.4%
viability, T/C [26]: 59.5%
viability, T/C (second compound 1 µM, first compound 0.000316 µM): 70.3%
viability, T/C (second compound 1 µM, first compound 0.001 µM): 81.3%
viability, T/C [27]: 76.6%
viability, T/C [28]: 57%
viability, T/C [29]: 57.9%
viability, T/C [30]: 46.4%
viability, T/C (second compound 3.16 µM, first compound 0.000316 µM): 97.2%
viability, T/C (second compound 3.16 µM, first compound 0.001 µM): 71.7%
viability, T/C (second compound 3.16 µM, first compound 0.00316 µM): 73%
viability, T/C (second compound 3.16 µM, first compound 0.01 µM): 62.7%
viability, T/C (second compound 3.16 µM, first compound 0.0316 µM): 45.5%
viability, T/C (second compound 3.16 µM, first compound 0.1 µM): 39.9%
viability, T/C (second compound 10 µM, first compound 0.000316 µM): 72.9%
viability, T/C (second compound 10 µM, first compound 0.001 µM): 72.2%
viability, T/C (second compound 10 µM, first compound 0.00316 µM): 63.9%
viability, T/C (second compound 10 µM, first compound 0.01 µM): 53.8%
viability, T/C (second compound 10 µM, first compound 0.0316 µM): 37%
viability, T/C (second compound 10 µM, first compound 0.1 µM): 43%

COc1c(OCCCN2CCOCC2)ccc2c3n(c(=NC(=O)c4cnc(N)nc4)nc12)CCN3 + CCN1CCN(Cc2ccc(Nc3ncc(F)c(-c4cc(F)c5nc(C)n(C(C)C)c5c4)n3)nc2)CC1
IC50 (second compound 0.01 µM): 76.5 nM
IC50 (second compound 0.0316 µM): 60.9 nM
IC50 (second compound 0.1 µM): 60 nM
IC50 (second compound 0.316 µM): 22.8 nM
IC50 (second compound 1 µM): 73.4 nM
viability, T/C (second compound 0.01 µM, first compound 0.00316 µM): 85.5%
viability, T/C (second compound 0.01 µM, first compound 0.01 µM): 72.7%
viability, T/C (second compound 0.01 µM, first compound 0.0316 µM): 77.5%
viability, T/C (second compound 0.01 µM, first compound 0.1 µM): 41.6%
viability, T/C (second compound 0.01 µM, first compound 0.316 µM): 36.5%
viability, T/C (second compound 0.01 µM, first compound 1 µM): 31.8%
viability, T/C (second compound 0.0316 µM, first compound 0.00316 µM): 105%
viability, T/C (second compound 0.0316 µM, first compound 0.01 µM): 74.6%
viability, T/C (second compound 0.0316 µM, first compound 0.0316 µM): 60.5%
viability, T/C (second compound 0.0316 µM, first compound 0.1 µM): 43.1%
viability, T/C (second compound 0.0316 µM, first compound 0.316 µM): 34.5%
viability, T/C (second compound 0.0316 µM, first compound 1 µM): 17.6%
viability, T/C [19]: 73%
viability, T/C [20]: 63.4%
viability, T/C [21]: 62.5%
viability, T/C [22]: 40.4%
viability, T/C (second compound 0.1 µM, first compound 0.316 µM): 32.5%
viability, T/C (second compound 0.1 µM, first compound 1 µM): 26.6%
viability, T/C [23]: 67.8%
viability, T/C [24]: 74.2%
viability, T/C [25]: 41.6%
viability, T/C [26]: 33.2%
viability, T/C (second compound 0.316 µM, first compound 0.316 µM): 31.5%
viability, T/C (second compound 0.316 µM, first compound 1 µM): 20.5%
viability, T/C [27]: 69.7%
viability, T/C [28]: 71.1%
viability, T/C [29]: 56%
viability, T/C [30]: 43.2%
viability, T/C (second compound 1 µM, first compound 0.316 µM): 40.8%
viability, T/C (second compound 1 µM, first compound 1 µM): 25.1%

CC(C)(C)c1cnc(CSc2cnc(NC(=O)C3CCNCC3)s2)o1 + CC(C)NCC(C(=O)N1CCN(c2ncnc3c2C(C)CC3O)CC1)c1ccc(Cl)cc1
IC50 (second compound 0.1 µM): 169 nM
IC50 (second compound 0.316 µM): 137 nM
IC50 (second compound 1 µM): 158 nM
IC50 (second compound 3.16 µM): 152 nM
IC50 (second compound 10 µM): 148 nM
viability, T/C [1]: 117%
viability, T/C [2]: 110%
viability, T/C [3]: 96.3%
viability, T/C [4]: 3.55%
viability, T/C [5]: 1.37%
viability, T/C [6]: 0.93%
viability, T/C [7]: 73.6%
viability, T/C [8]: 111%
viability, T/C [9]: 72.7%
viability, T/C [10]: 2.55%
viability, T/C [11]: 1.26%
viability, T/C [12]: 0.62%
viability, T/C [13]: 95.6%
viability, T/C [14]: 117%
viability, T/C [15]: 88.8%
viability, T/C [16]: 2.06%
viability, T/C [17]: 0.88%
viability, T/C [18]: 0.72%
viability, T/C (second compound 3.16 µM, first compound 0.00949 µM): 97.9%
viability, T/C (second compound 3.16 µM, first compound 0.03 µM): 113%
viability, T/C (second compound 3.16 µM, first compound 0.0949 µM): 82.9%
viability, T/C (second compound 3.16 µM, first compound 0.3 µM): 2.53%
viability, T/C (second compound 3.16 µM, first compound 0.949 µM): 0.89%
viability, T/C (second compound 3.16 µM, first compound 3 µM): 0.79%
viability, T/C (second compound 10 µM, first compound 0.00949 µM): 79.2%
viability, T/C (second compound 10 µM, first compound 0.03 µM): 74.1%
viability, T/C (second compound 10 µM, first compound 0.0949 µM): 88%
viability, T/C (second compound 10 µM, first compound 0.3 µM): 1.97%
viability, T/C (second compound 10 µM, first compound 0.949 µM): 0.87%
viability, T/C (second compound 10 µM, first compound 3 µM): 0.7%
